Measurements from patent US20220283175A1, “METALLOENZYMES FOR BIOMOLECULAR RECOGNITION OF N-TERMINAL MODIFIED PEPTIDES” (Encodia, Inc., priority 2020, published 2022).
Residues, ends and D or L forms follow the SMILES beside them. *: point of attachment. Benzoyl(4-SO2NH2) = NS(=O)(=O)c1ccc(C(=O)*)cc1

How the values were obtained:
wild-type hCAII protein = wild-type hCAII protein (Homo sapiens, UniProt P00918); test: colorimetric IC50 assay (pNPA hydrolysis) with wild-type hCAII; format: biochemical; conditions: for IC50: 300 nM wild-type hCAII; for Fold Enhancement: relative to NTM M64
Description: The colorimetric assay used 300 nM of wild-type carbonic anhydrase incubated in 45 μL of 50 mM MOPS (pH 7.5), 33 mM Na2SO4, and 1 mM EDTA aliquoted into a 96-well, clear, flat-bottom plate. To each column of the plate, a 1/10 dilution series from 1 mM to 0.1 nM of each NTM was added and incubated at 25° C. for 10 minutes to reach binding equilibrium. To this, 1 mM p-nitrophenylacetate (pNPA) was added to each well and screened on a plate reader at 405 nm wavelength. The initial rate of hydrolysis was observed over the first 60 seconds. The slopes versus the concentration of NTM were put into a non-linear regression equation to determine the IC50 of the NTM to the carbonic anhydrase.
The N-terminally modified peptides were then evaluated using colorimetric IC50 assay to determine relative binding affinity of NTM-AAEIR to wild-type hCAII protein based on NTM-AAEIR inhibition capacity. The slopes versus the concentration of NTM-AAEIR were put into a non-linear regression equation to determine the IC50 of the selected NTM-AAEIR peptides to the wild-type hCAII.

[1] = target: human carbonic anhydrase II (hCAII) (Homo sapiens, UniProt P00918); test: hCAII functional assay (hydrolysis of p-nitrophenylacetate, pNP release); format: biochemical; conditions: 1 μM hCAII, 500 μM pNP-OAc, 10 min at 37° C.
Description: A functional assay for hCAII enzyme was set up. Carbonic anhydrase catalyzes the hydrolysis of 4-nitrophenyl acetate (4-NPA) to nitrophenol, which can be monitored by absorbance at 400 nm. The enzymatic carbonic anhydrase assay generally includes 0.2-1.0 μM enzyme and 10-500 μM 4-NPA in 20-200 μL in assay buffer. […] Metal chelating agents (EDTA or EGTA), salt (NaCl, sulfate), detergent (Tween or Triton), and organic additives (acetonitrile, DMSO) may be employed to facilitate enzyme stability and reagent solubility. For the assay, 1 μM human carbonic anhydrase II, 50 mM MOPS (pH 7.6), 33 mM disodium sulfate, and 1 mM EDTA. To generate NTM-modified peptides, azide-derivatized peptides (via azide-PEG-amine and carbodiimide coupling to C-terminus of peptide) were conjugated to DBCO-coupled beads. […] To evaluate P1 dependence of the binding reaction, multiple P1 residues has been tested.

| SMILES | IC50 (wild-type hCAII protein; free NTM) [nM] | Fold Enhancement (wild-type hCAII protein; free NTM) | IC50 [1] [nM] | Fold Enhancement (wild-type hCAII protein; NTM-AAEIR) |
| --- | --- | --- | --- | --- |
| Nc1cc(S(N)(=O)=O)ccc1C(=O)O [2-NH2, 2-Amino-4-sulfamoylbenzoic acid] | 1380 | 0.3 |  |  |
| C[C@H](NC(=O)c1ccc(S(N)(=O)=O)cc1)C(=O)N[C@@H](Cc1ccccc1)C(=O)N[C@@H](C)C(=O)N[C@@H](C)C(=O)N[C@@H](CCC(=O)O)C(N)=O [(SAB)AFAAE] ({Benzoyl(4-SO2NH2)}-AFAAE-NH2) |  |  | 183 |  |
| C[C@H](NC(=O)[C@H](C)NC(=O)[C@H](Cc1ccccc1)NC(=O)c1ccc(S(N)(=O)=O)cc1)C(=O)N[C@@H](C)C(=O)N[C@@H](CCC(=O)O)C(N)=O [(SAB)FAAAE] ({Benzoyl(4-SO2NH2)}-FAAAE-NH2) |  |  | 45 |  |
| NS(=O)(=O)c1ccc(C(=O)O)cn1 [M65, 6-Sulfamoylpyridine-3-carboxylic acid] | 211 | 2.2 |  | 0.3 |
| NS(=O)(=O)c1ccc(C(=O)O)nc1 [M66] | 992 | 0.5 |  |  |
| NS(=O)(=O)c1ccc(C(=O)O)c([N+](=O)[O-])c1 [M67, 2-Nitro-4-sulfamoylbenzoic acid] | 124 | 3.8 |  | 2.0 |
| COc1cc(S(N)(=O)=O)ccc1C(=O)O [M73, 2-Methoxy-4-sulfamoylbenzoic acid] | 65400 | 0.0 |  |  |
| Cc1cc(S(N)(=O)=O)ccc1C(=O)O [M74, 2-methyl-4-sulfamoylbenzoic acid] | 2040 | 0.2 |  |  |
| NS(=O)(=O)c1ccc(C(=O)O)c(F)c1 [M75, 2-Fluoro-4-sulfamoylbenzoic acid] | 224 | 2.1 |  | 2.2 |
| NS(=O)(=O)c1ccc(C(=O)O)c(Cl)c1 [M76, 2-Chloro-4-sulfamoylbenzoic acid] | 180 | 2.6 |  | 1.9 |
| NS(=O)(=O)c1ccc(C(=O)O)cc1F [M88, 3-Fluoro-4-sulfamoylbenzoic acid] | 110 | 4.3 |  | 1.6 |
